Molecular target: T1, CapZβ (Homo sapiens, UniProt P47756)
T1 construct: gene CAPZB; recombinant CapZβ
Assay: isothermal titration calorimetry
Assay type: binding
Conditions: biotinylated vacuolin-1 analogue; labelled compound

T1 sequence (P47756 2-272): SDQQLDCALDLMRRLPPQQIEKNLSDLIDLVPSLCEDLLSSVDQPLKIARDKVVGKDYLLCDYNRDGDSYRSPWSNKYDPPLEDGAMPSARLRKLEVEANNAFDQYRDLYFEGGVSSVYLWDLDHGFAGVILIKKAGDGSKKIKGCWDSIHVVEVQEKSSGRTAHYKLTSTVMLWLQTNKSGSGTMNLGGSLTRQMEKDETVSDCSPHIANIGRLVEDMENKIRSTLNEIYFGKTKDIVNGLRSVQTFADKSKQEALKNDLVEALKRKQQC

Kd: ~3.1 µM
Substance: biotin-V1
